Patent EP0097127A2, “Cephalosporin derivatives, process for their preparation and pharmaceutical compositions containing them” (CIBA-GEIGY AG, priority 1982, dated 1983)

How the values were obtained:
Assay in all cases: Chemotherapeutic activity against systemic infection in mice
Type in all cases: in vivo
Escherichia coli 2018 = details: systemic infection in mice with Escherichia coli 2018; oral application
Procedure: (§1) Die Verbindungen der Formel I, worin Am eine freie Aminogruppe ist und ihre pharmazeutisch verwendbaren, nichttoxischen Salze sind wertvolle, antibiotisch wirksame Substanzen, die insbesondere als antibakterielle Antibiotika verwendet werden können. Beispielsweise haben sie in vivo bei oraler Applikation an der Maus bei systemischen Infektionen mit Staphylococcus aureus eine ED50 von etwa 70-100 mg/kg, und bei systemischen Infektionen mit Enterobakterien, z.B. Escherichia coli, Klebsiella pneumonia, Proteus mirabilis oder Proteus morganii eine ED50 von etwa 0.35 bis 100 mg/kg.
(§2) Chemotherapeutische Wirksamkeit gegen systemische Infektionen in Mäusen.

Escherichia coli 205 = details: systemic infection in mice with Escherichia coli 205; oral application
Procedure: as §1, §2

Klebsiella pneumonia = details: Klebsiella pneumoniae; systemic infection in mice with Klebsiella pneumonia; oral application
Procedure: as §1, §2

Proteus mirabilis = details: systemic infection in mice with Proteus mirabilis; oral application
Procedure: as §1, §2

Proteus morganii = details: Morganella morganii; systemic infection in mice with Proteus morganii; oral application
Procedure: as §1, §2

[1] = test system: Staphylococcus aureus 10B; details: systemic infection in mice with Staphylococcus aureus 10B; oral application
Procedure: as §1, §2

| Compound | ED50 (Escherichia coli 2018) [mg/kg] | ED50 (Escherichia coli 205) [mg/kg] | ED50 (Klebsiella pneumonia) [mg/kg] | ED50 (Proteus mirabilis) [mg/kg] | ED50 (Proteus morganii) [mg/kg] | ED50 [1] [mg/kg] |
| --- | --- | --- | --- | --- | --- | --- |
| CO/N=C(\C(=O)N[C@@H]1C(=O)N2C(C(=O)OCC(=O)OC3CCCCC3)=CCS[C@H]12)c1csc(N)n1 [Testverbindung 2, Ceftizoxime-cyclohexyloxycarbonylmethylester] | 0.4 | 0.5 to 5 | 7 | > 30 | > 100 | > 100 |
| CO/N=C(\C(=O)N[C@@H]1C(=O)N2C(C(=O)OCC(=O)O[C@@H]3C[C@@H]4CC[C@@]3(C)C4(C)C)=CCS[C@H]12)c1csc(N)n1 [Testverbindung 1, Ceftizoxime-(ℓ)-bornyloxycarbonylmethylester] | 0.35 | 1 | 6 | 10 | 30 | 70 |
| CO/N=C(\C(=O)N[C@@H]1C(=O)N2C(C(=O)OCC(=O)O[C@@H]3C[C@H](C)CC[C@H]3C(C)C)=CCS[C@H]12)c1csc(N)n1 [Testverbindung 3, Ceftizoxime-(9)-menthyloxycarbonylmethylester] | 1.5 | 4 | 4 | ≥ 30 | 100 | 30 to 100 |
